One test concerns NMDA receptor. The following applies: C. Carter et al, 1988; cited from earlier work.
In another test the target is T1, sigma receptor (Rattus norvegicus, UniProt Q9R0C9).
T1 construct: Brains from male Sprague-Dawley rats were homogenized; from tissue; host or cells: rat brain crude membranes (male Sprague-Dawley)
The test is described as follows: Radioreceptor assay in rat brain homogenate, displacement of [3H]-(+)-3-PPP. It counts as binding. The note with it: for Ki: rat brain membranes, 2 nM [3H]-(+)-3-PPP, 1 hr, room temperature, units ± SEM, read-out: Ki apparent. As to the method: Acad. Sci., 83, 8784-8788, 1986] to determine the relative potency of the compounds interacting with the sigma receptor. To determine the effects of the compounds in a sigma receptor assay, crude membrane preparations were prepared as follows. Brains from male Sprague-Dawley rats were homogenized in 10 volumes (wt/vol) of 0.32M sucrose, using a Polytron grinder. The homogenate was centrifuged at 900×G for 10 minutes at 4° C. The supernatant was collected and centrifuged at 22,000×g for 20 minutes at 4° C. The pellet was resuspended in 10 volumes of 50 mM Tris/HCl buffer (pH 7.4) and centrifuged at 22,000×g for 20 minutes at 4° C. The pellet was resuspended in 5 mM Tris/HCl buffer (pH 7.4) to give a final concentration of 250 mg/ml of the crude material. Incubation tubes were prepared in triplicate and contained 0.1 ml of tissue suspension, 2 nM of [^3 H]-(+)-1-propyl-3-(3-hydroxyphenyl)piperidine {[^3 H]-3-(+)-PPP}, and varying concentrations of the displacing ligand (0.1-1000 nM) in a final volume of 0.5 ml. After a 1 hr incubation at room temperature, the contents of the test tubes were filtered through GS filter paper which had been presoaked for at least 2 hours in 0.05% polyethyleneamine. The test tubes were rinsed three times with Tris/HCl buffer. Radioactivity on the filters was determined and […] were calculated from inhibition curves using the method of Cheng and Prusoff [Biochem. Pharmacol., 22, 3099-3108, 1973].

The next test deals with substantia nigra. The test is described as follows: Circling behavior assay, intranigral microinjection. It counts as in vivo, rat. The following applies: for Net Turns (individual rat): individual subjects. As to the method:
In order to assess the utility of compounds of the invention in treatment of Parkinsonism, the ability of the compound to stimulate movement following microinjections in the substantia nigra was assessed. Parkinson's disease results from the degeneration of dopamine-secreting neurons in the substantia nigra resulting in a reduced ability to generate movement. […] Such a stimulatory action would predict increased ability to generate voluntary movement in Parkinson's patients showing decreased functionality of this brain area. Current treatments of Parkinson's disease also stimulate this brain area, but show significant side effects that may not be present in compounds of the invention. […] It is expected, therefore, that compounds of the invention would have clinical utility in the treatment of Parkinson's disease and other disorders in which there is a paucity of movement.
Three to seven days before behavioral testing, each animal (245-350 g, N=57) was anesthetized with 50 mg/kg sodium pentobarbital and mounted in a Narishige stereotaxic apparatus. A guide cannula, constructed from 24 gauge thinwall stainless steel tubing, was implanted with its tip 4.0 mm above the left substantia nigra pars reticulata (coordinates: 3.2 mm anterior; 2.2 mm lateral; 4.7 mm ventral), from lambda and the skull surface. Cannulae were secured with stainless steel screws and dental acrylic. Stainless steel stylers kept the cannulae sealed except during drug infusion. All drugs were prepared on the day of testing. Animals were gently restrained and the drugs were administered in a volume of 0.5 ul over 72 seconds through a 31 gauge microneedle that was constructed to extend 4.0 mm beyond the tips of the guide cannulae. […] Animals received a single injection of saline (n=6), 1.5 nmol (n=5), 3.7 nmol (n=6), 9.3 nmol (n=7 or 14.9 nmol (n=5) in 0.5 ul 0.9% NaCl. Following injection, each animal was fitted with a harness which was connected to an optical position transducer interfaced to a compouter that derived the number and direction of half turns for 30 min. Each rat received a single injection of the test drug to minimize tissue damage. Rats were sacrificed by an overdose of sodium pentobarbital and perfused intracardially with 10% formalin. Brains were fixed in a 30% sucrose-formalin solution and coronal sections (40 um) were taken throughout the extent of the injection site. The sections were stained with cresyl violet and examined under a microscope to localize injection sites. Only subjects with histologically confirmed injection sites were used in the data analyses. For the studies of circling behavior, the number of net (contalateral-isolateral) rotations were computed for each rat and subjected to analysis of variance. […] Results showing contralateral circling behavior produced by intranigral microinjections of various doses of Compound #1 are reported in Table IV and illustrated in FIG. 1.
Individual subjects are shown along with the average and standard deviation of the effect.

For a further test, the target named is T2, sigma receptors (Cavia porcellus, UniProt Q60492).
T2 construct: crude synaptosomal (P2) membrane fraction of guinea pig brain for sigma receptors; tissue Pel-Freeze, Rogers, Ak; host or cells: guinea pig brain minus cerebellum, crude synaptosomal (P2) membranes
The test is described as follows: Radioreceptor assay in guinea pig brain homogenate (P2 membranes), [3H]-(+)-3-PPP. It counts as binding.

Several values for one entry are separate records, joined by “and”; a condition that tells them apart may be missing. Identical values can stand only once. Entries after “also recorded” stand apart in the source; their conditions may differ. Like-named read-outs stand apart in the source and are kept apart here.

T1 sequence (Q9R0C9 whole entry): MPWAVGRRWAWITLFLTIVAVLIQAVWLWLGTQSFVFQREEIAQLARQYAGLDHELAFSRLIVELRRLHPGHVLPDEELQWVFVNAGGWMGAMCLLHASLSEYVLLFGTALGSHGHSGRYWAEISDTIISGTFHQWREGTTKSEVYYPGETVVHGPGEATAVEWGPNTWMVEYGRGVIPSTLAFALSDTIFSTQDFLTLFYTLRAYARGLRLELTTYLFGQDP
T2 sequence (Q60492 whole entry): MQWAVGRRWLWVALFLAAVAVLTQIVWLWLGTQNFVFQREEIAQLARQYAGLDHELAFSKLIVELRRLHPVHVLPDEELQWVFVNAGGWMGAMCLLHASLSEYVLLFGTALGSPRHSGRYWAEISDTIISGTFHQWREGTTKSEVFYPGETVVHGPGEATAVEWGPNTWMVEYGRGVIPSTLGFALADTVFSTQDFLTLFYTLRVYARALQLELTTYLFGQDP

For the molecule “1-(4-chlorophenyl)-2-[1-(4-fluorophenyl)piperidinyl]ethanol”, the “NMDA receptor antagonism (in words)” value with NMDA receptor is on record as “non-competitive NMDA receptor antagonists”.

Regarding `CN(CCc1ccc(Cl)c(Cl)c1)[C@@H]1CCCC[C@@H]1N1CCCC1` (racemic) [Compound No. 1, (±)-cis-N-[2-(3,4-dichlorophenyl)ethyl]-N-methyl-2-(1-pyrrolidinyl)cyclohexylamine], the “Binding to sigma receptors (in words)” value on sigma receptor is reported as “binds to sigma receptors”. Also, the Ki is 230 ± 70 nM on sigma receptor and 1.8 ± 0.4 nM at sigma receptors. The “Net Turns, Average” value with substantia nigra (dose 1.49 nmol, Stan Dev 18.94) is reported as 11.00 1/2 contralateral rotations ne; in the test on substantia nigra (dose 3.72 nmol, Stan Dev = 7.87) it was 18.33 1/2 contralateral rotations ne; in the test on substantia nigra (dose 9.3 nmol, Stan Dev 21.46) it was 38.14 1/2 contralateral rotations ne; in the test on substantia nigra (dose 14.9 nmol, Stan Dev = 27.08), 31.00 1/2 contralateral rotations ne. Also, the “Net Turns (individual rat)” value is 25.00 1/2 contralateral rotations ne and 17.00 1/2 contralateral rotations ne and 5.00 1/2 contralateral rotations ne and 4.00 1/2 contralateral rotations ne and 38.00 1/2 contralateral rotations ne in the test on substantia nigra (dose 1.49 nmol); 13.00 1/2 contralateral rotations ne and 23.00 1/2 contralateral rotations ne and 5.00 1/2 contralateral rotations ne and 28.00 1/2 contralateral rotations ne and 25.00 1/2 contralateral rotations ne and 16.00 1/2 contralateral rotations ne with substantia nigra (dose 3.72 nmol); 28.00 1/2 contralateral rotations ne and 20.00 1/2 contralateral rotations ne and 46.00 1/2 contralateral rotations ne and 87.00 1/2 contralateral rotations ne and 30.00 1/2 contralateral rotations ne and 22.00 1/2 contralateral rotations ne and 34.00 1/2 contralateral rotations ne in the test with substantia nigra (dose 9.3 nmol); 6.00 1/2 contralateral rotations ne and 58.00 1/2 contralateral rotations ne and 13.00 1/2 contralateral rotations ne and 61.00 1/2 contralateral rotations ne and 7.00 1/2 contralateral rotations ne and 75.00 1/2 contralateral rotations ne and 24.00 1/2 contralateral rotations ne and 4.00 1/2 contralateral rotations ne with substantia nigra (dose 14.9 nmol). The “Circling behavior compared to saline control” value in the test with substantia nigra (intranigral microinjection 1.5-14.9 nmol, F4,27=3.09, p=0.032) is recorded as “significant dose-related increases in circling behavior; also recorded: increasing doses of Compound #1 produce marked effects, which are statistically significant”. Further, the “Doses producing circling compared with (+)-pentazocine” value in the test with substantia nigra (intranigral, (+)-pentazocine data published previously) is listed as “doses lower than those necessary to produce the effect with (+)-pentazocine”.

The molecule `CN(CCc1ccccc1)[C@@H]1CCCC[C@@H]1N1CCCC1` (racemic) [compound 9, (±)-cis-N-methyl-N-(2-phenylethyl)-2-(1-pyrrolidinyl)cyclohexylamine] gave a Ki on sigma receptors of 113 ± 8 nM.

In the case of `CN(CCc1ccc2ccccc2c1)[C@@H]1CCCC[C@@H]1N1CCCC1` (racemic) [compound 10, (±)-cis-N-methyl-N-[2-(β-naphthyl)ethyl]-2-(1-pyrrolidinyl)cyclohexylamine], the Ki at sigma receptors (guinea pig brain P2 membranes, 3 nM [3H]-3-PPP, pH 8.0, 120 min, 25° C., units ± SEM, read-out: Ki) was found to be 33 ± 5 nM.

With `CN(Cc1ccc(Cl)c(Cl)c1)[C@@H]1CCCC[C@@H]1N1CCCC1` (relative stereo) [compound 17, (±)-cis-N-[2-(3,4-dichlorophenyl)methyl]-N-methyl-2-(1-pyrrolidinyl)cyclohexylamine], the Ki on sigma receptors amounted to 1.2 ± 0.03 nM.

With `CN(CCc1ccc(Cl)c(Cl)c1)[C@H]1CCCC[C@H]1N1CCCC1` [Compound No. 7, 1S,2R-(-)-cis-N-[2-(3,4-dichlorophenyl)ethyl]-N-methyl-2-(1-pyrrolidinyl)cyclohexylamine], the Ki at sigma receptor amounted to 30 ± 10 nM; at sigma receptors, 1.3 ± 0.3 nM.

In turn, `CCCN(CCc1ccc(Cl)c(Cl)c1)[C@@H]1CCCC[C@@H]1N1CCCC1` [compound 4, (1R,2S)-(-)-cis-N-[2-(3,4-dichlorophenyl)-ethyl]-N-(n-propyl)-2-(1-pyrrolidinyl)cyclohexylamine] came in with a Ki on sigma receptors of 56 ± 9.9 nM.

In the case of `CCN(CCc1ccc(Cl)c(Cl)c1)[C@@H]1CCCC[C@@H]1N1CCCC1` [compound 5, (1R,2S)-(-)-cis-N-ethyl-N-[2-(3,4-dichlorophenyl)ethyl]-2-(1-pyrrolidinyl)cyclohexylamine], the Ki at sigma receptors is 3.5 ± 1 nM.

Consider `CN(CCc1ccc2c(c1)OCO2)[C@H]1CCCC[C@H]1N1CCCC1` [compound 11, 1S,2R-(-)-cis-N-methyl-N-[2-(3,4-methylenedioxyphenyl)ethyl]-2-(1-pyrrolidinyl)cyclohexylamine], for which the Ki at sigma receptors is 90 ± 20 nM.

With `CN(CCc1ccc2c(c1)OCO2)[C@@H]1CCCC[C@@H]1N1CCCC1` [compound 12, 1R,2S-(+)-cis-N-methyl-N-[2-(3,4-methylenedioxyphenyl)ethyl]-2-(1-pyrrolidinyl)cyclohexylamine], on sigma receptors, the Ki was found to be 31 ± 0.05 nM.

In turn, `CCN(CCc1ccc(Cl)c(Cl)c1)[C@H]1CCCC[C@H]1N1CCCC1` [compound 14, 1S,2R-(-)-cis-N-[2-(3,4-dichlorophenyl)ethyl]-N-ethyl-2-(1-pyrrolidinyl)cyclohexylamine] yielded a Ki on sigma receptors of 3.1 ± 0.55 nM.

Turning to `CCCN(CCc1ccc(Cl)c(Cl)c1)[C@H]1CCCC[C@H]1N1CCCC1` [compound 16, 1S,2R-(-)-cis-N-[2-(3,4-dichlorophenyl)ethyl]-N-(1-propyl)-2-(1-pyrrolidinyl)cyclohexylamine], on sigma receptors, the Ki is 140 ± 17 nM.

On to `CC(C(O)c1ccc(O)cc1)N1CCC(Cc2ccccc2)CC1` (centres unmarked) [ifenprodil], for which the “NMDA receptor antagonism (in words)” value in the test with NMDA receptor is on record as “non-competitive NMDA receptor antagonists”.

The values above are taken from patent US5739158A, “Nitrogen-containing cyclohetero cycloalkylaminoaryl derivatives for CNS disorders” (The United States of America as represented by the …, priority 1992, dated 1998).
